row,SMILES,melting point
1,CNCC1Cc2cc(-c3ccccc3)cc(-c3ccc(OC)cc3)c2O1 (stereo unspecified),> 250 °C
2,CCOC(=O)CNC(=O)CCc1cc(Cl)ccc1C(=O)CCCNC(C)=O,96 °C
3,CCOC(=O)c1c(C(C)(C)O)nc(SC)n1Cc1ccc(-c2ccccc2-c2nnnn2C(c2ccccc2)(c2ccccc2)c2ccccc2)cc1,125 to 127 °C
4,CCOC(=O)c1cc2n(c1)CN(CCC#N)c1c(OC)cccc1-2,146 to 147 °C
5,c1ccc(CC2=NOC3(CCNCC3)C2)cc1,51 to 54 °C
6,CC1CCC(C(C)C)C(OC(=O)C2C(=O)N(Cc3ccc(Br)cc3F)C(=O)c3cccn32)C1 (stereo unspecified),98 to 99 °C
7,C#Cc1c(C#N)nn(-c2c(Cl)cc(C(F)(F)F)cc2Cl)c1Br,134 to 135 °C
8,COc1cc2c(cc1OC)N(C)C(=O)CN=C2c1cncc2ccccc12,131 to 135 °C
9,Cc1cc(NC(=O)C(C)(O)COc2cc(Cl)cc(Cl)c2)ccc1[N+](=O)[O-] (stereo unspecified),141 to 143 °C
10,CCOC(=O)N1CC(C)C2=NNC(=O)CC2C1 (stereo unspecified),101 to 103 °C
11,Cn1c(-c2ccc(O)cc2)cc2ccc(O)cc21,200 to 204 °C
12,Cc1ccc(C(C#N)C=Cc2ccc(O)c(O)c2)cc1 (stereo unspecified),172 °C
13,CCCCCc1cc(O)c2c3c(c(=O)oc2c1)SC(C)C3 (stereo unspecified),188 to 190 °C
14,CCOC(=O)C1=C(C)NC(C#N)=C(C(=O)OCC)C1c1ccccc1/C=C/C(=O)OC(C)(C)C (stereo unspecified),146 to 147 °C
15,CC(C)(CNc1ccnc2cc(Cl)ccc12)NCc1ccc(F)c(Cl)c1,164 to 165 °C
16,Cc1cc(SC2=C(O)CC(CCc3ccc(O)cc3)(C3CCCC3)OC2=O)c(C(C)(C)C)cc1N (stereo unspecified),133 to 135 °C
17,CCOC(=O)c1cc(=O)c(O)c(-c2ccc(OC)cc2)o1,163 to 164 °C
18,CC1(C)CON(Cc2ccc(N3C(=O)c4cccnc4C3=O)cc2Cl)C1=O,139 to 141 °C
19,O=CCCc1nc(-c2ccc(Cl)cc2)co1,41 to 42 °C
20,CS(=O)(=O)Nc1ccc(CCN2CCN(c3ccc(NS(C)(=O)=O)c(F)c3)CC2)cc1,232 to 234 °C

row,SMILES,melting point
1,CCC(=O)N1CCN(C(=O)OC2C3=C(SCC(OC)CS3)C(=O)N2c2ccc(Cl)cn2)CC1 (stereo unspecified),160 °C
2,COc1ccc2c(c1)C(C)(C)[C@H]1CCCN(C(C)=O)[C@H]1C2 (relative stereo),81 to 85 °C
3,COc1cc2ncc(C#N)c(Nc3ccc(C(F)(F)F)cc3)c2cc1OC,116 to 118 °C
4,COC(=O)c1c(C(F)F)nc(C(F)(F)F)c(N=COCC2CO2)c1CC(C)C (stereo unspecified),41 to 43 °C
5,ClCC1(CCl)Cc2cccc3cccc1c23,212 to 213 °C
6,CSc1sc(-c2nccs2)c2c1-c1oncc1CC2,165 to 168 °C
7,O=C1c2cc(Cl)ccc2NCN1CCN1CCOCC1,82 °C
8,CCN(CC)c1ccc(S(=O)(=O)N2CCCC2=S)cc1,183 to 184 °C
9,CC(=O)OC1C=CC2(C)C(=CCC3C2CCC2(C)C3CCC23OCCO3)C1 (stereo unspecified),105 to 106 °C
10,O=P(O)(CCCNCc1cc(Cl)cc(Cl)c1)CC1CCCCC1,231 to 233 °C
11,CCCOc1ccc(Cl)cc1C1=NC(=O)C2=NC=NC2=N1,277 to 279 °C
12,O=C(CC1CC1)N[C@H]1CC[C@H](CCN2CCC(c3cccc4c3CCO4)CC2)CC1,189 °C
13,[N-]=[N+]=N[C@@H]1CN2C(=O)N(c3cc(Cl)nc(Cl)c3)C(=O)[C@@]2(Cc2ccc(OC(F)(F)F)cc2)C1,140 °C
14,CCCCCCNCCCS(=O)(=O)O,144 to 147 °C
15,CCOC(=O)c1c(Cl)nc2cc(F)c(F)cc2c1CCl,264 °C
16,Cc1ccc(S(=O)(=O)N[C@@H]2CCCC[C@H]2OCC(=O)O)cc1 (relative stereo),56 to 58 °C
17,COc1cc(C2CCN(C[C@@H](O)CO)CC2)ccc1-c1nc2c(N[C@H]3[C@@H](C(N)=O)[C@@H]4C=C[C@H]3C4)c(Cl)cnc2[nH]1,209 to 211 °C
18,COc1ccc(-c2nnc(Cl)cc2C)cc1,132 °C
19,Cc1cccc(C2SC3(CCN(C(=O)Oc4ccccc4)CC3)c3ccccc32)c1 (stereo unspecified),154 to 157 °C
20,Cc1cc(-c2ccc(C(F)(F)F)cc2)cc(-c2cccc(-c3cccc(S(N)(=O)=O)c3)n2)n1,250 °C

row,SMILES,melting point
1,CC(C)(C)C1CCc2nc(N)nc(N)c2C1 (stereo unspecified),> 250 °C
2,COc1cc2c(cc1OC)C(NCC(=O)O)CC2 (stereo unspecified),213 to 216 °C
3,C#CCCCn1ncc2c(OCC)c(C(=O)OCC)cnc21,84 to 85.5 °C
4,CCc1noc(-c2cn(-c3ccc4c(c3)OCO4)cn2)n1,173 to 174 °C
5,Fc1ccc2[nH]cc(CC3CCN(CCOc4cccc5c4OCCO5)CC3)c2c1,157 to 159 °C
6,CC1(C(=O)C(N)=O)CC1(Cl)Cl (stereo unspecified),92 to 93 °C
7,c1ccc(Cn2c3ccccc3c3ccsc32)cc1,96 to 98 °C
8,C=CCn1c(C(F)(F)F)nc2ccc(-n3c(=O)cc(C(F)(F)F)n(C)c3=O)cc21,171 to 173 °C
9,COc1cc(OC)cc(-c2nc(C)nn2-c2ccc(S(N)(=O)=O)cc2)c1,207 to 208 °C
10,COCC1=NC(NC(=O)Nc2cccc(C)c2)C(=O)N(CC(=O)N2CC3CCC(CC3)C2)c2c(C)cccc21 (stereo unspecified),178 to 182 °C
11,O=C(NCCc1ccc2c(c1)OCO2)C12CC3CC(CC(C3)C1)C2,146 to 148 °C
12,C#Cc1cc(-c2cccs2)c(OC)cc1OC,141 to 142 °C
13,CC1CCN(C(=O)C(Cc2cc3c(N)nccc3s2)NS(=O)(=O)c2ccc(OC3CCOCC3)cc2)CC1 (stereo unspecified),127 to 129 °C
14,C=COC(=O)N=c1sc2cc(OC(F)(F)F)ccc2n1CCO,190 °C
15,CC(=O)CCc1ccc2c(c1)Cc1cc(O)ccc1-2,170 °C
16,COc1ccc(C2=C(C(=O)O)N(Cc3ccc4c(c3)OCO4)S(=O)(=O)c3ccccc32)cc1OC,267 to 268 °C
17,O=C(O)c1ccc(CC(NC(=O)C(c2ccccc2)c2ccccc2)c2ccccc2)cc1 (stereo unspecified),245 to 248 °C
18,CCC1=CC(C)(C)Oc2c(OC)cc(Cc3cnc(N)nc3N)cc21,256 to 257 °C
19,COc1cc(CCN2CCN(C)CC2)cc(OC)c1-c1ccc(C[C@H](NC(=O)c2c(Cl)cccc2Cl)C(=O)O)cc1,179 °C

# Results, then the compound that gave them:
row,melting point,SMILES
1,124 to 125 °C,O=C1C(c2ccccc2)=C(c2ccccc2)C(=O)N1Cc1ccc(F)cc1
2,110 °C,O=C(Cc1ccncn1)c1ccc(Cl)cc1
3,331 to 334 °C,CCc1c2c(nn1-c1ccccc1)c(=O)[nH]c1ccccc12
4,268 to 270 °C,CS(=O)(=O)c1cc(C(=O)N=C(N)N)ccc1Oc1ccc(=O)[nH]n1
5,185 to 187 °C,CCOC(=O)C1=C(COCc2cc(=O)[nH]c(N)n2)NC(C)=C(C(=O)OC)C1c1ccccc1Cl (stereo unspecified)
6,233 to 234 °C,O=C(O)c1ccc(-c2nc(-c3cccc(OC(F)(F)F)c3)cs2)cc1
7,183 to 185 °C,CN1CCN(CC(=O)N2c3ccccc3N(C)C(=O)c3cncnc32)CC1
8,214 to 216 °C,COc1ccc(Nc2ncccc2NS(=O)(=O)c2ccc(O)cc2)cc1
9,179 to 181 °C,CCC(=O)Nc1ccc(-c2ccncc2)cc1
10,149 to 150 °C,O=C1c2ccccc2-c2c(Cl)nc3ccccc3c21
11,162 to 163 °C,O=C(Nc1c[nH]nc1C(=O)NCCSc1ccccn1)c1ccccn1
12,83 to 84 °C,Fc1ccc(-c2cc(CCC#Cc3ccccn3)on2)cc1
13,149 to 150 °C,O=C(O)CCc1conc1-c1ccc(Cl)cc1
14,267 to 268 °C,O=C(C=Cc1ccccc1)NNC(=O)C=Cc1ccccc1
15,221 to 222 °C,Cc1c2c(nn1C(C)C)c(N)nc1ccccc12
16,102 to 103 °C,CCOP(=O)(Cc1ccccc1NC(=O)C1=Cc2cc(C3CCCCC3)ccc2CC1)OCC
17,128 to 130 °C,CC(C)(C)OC(=O)N1CCCN(c2ccc([N+](=O)[O-])cc2)CC1
18,170 to 173 °C,CC(C)n1cnc2c(NCc3ccncc3)nc(F)nc21
19,156 to 160 °C,NC(=O)c1ccc(C(=O)C=C(c2cc(Cl)cc(Cl)c2)C(F)(F)F)cc1
20,152 to 153 °C,O=C(c1ccccc1CBr)c1ccc(Cl)cc1CBr
21,136 to 138 °C,Cc1cnc2c([N+](=O)[O-])ccc(Cl)c2c1Cl

row,melting point,SMILES
1,71 to 75 °C,C[C@H]1[C@H](NC(=O)OC(C)(C)C)C(=O)N1OCC(=O)OCc1ccc([N+](=O)[O-])cc1
2,192 to 194 °C,CSc1nc(NC(=O)NS(=O)(=O)c2ccccc2C(=O)OC(C)C)nn1C
3,108 °C,COc1ccc2c(c1)CCCCN2C(=O)Nc1cccc(C(F)(F)F)c1
4,192 to 193 °C,CC(C)[C@H](NS(=O)(=O)c1ccc(-c2ccc(Br)cc2)cc1)C(=O)O
5,272 to 273 °C,O=C(Nc1nnn[nH]1)c1ccccc1[N+](=O)[O-]
6,55 to 57 °C,CCOC(=O)C(=CNc1ccc(CC)nc1)C(=O)OCC
7,97 to 99 °C,NC(=O)N(O)CC#CCOc1ccccc1
8,212 to 213 °C,CNc1nc(C(N)=O)c(-c2ccncc2)s1
9,103 to 104 °C,CO/C=C(/C(=O)OC)c1ccccc1Oc1nc(Cl)nc(Oc2ccccc2)n1
10,244 to 246 °C,COCC(=O)Nc1cccc2c1C(=O)N(C1(C)CCC(=O)NC1=O)C2=O (stereo unspecified)
11,207 to 208 °C,Nc1c(C(=O)O)ccc(F)c1F
12,72 to 73 °C,Nc1ccc(CCC(=O)Nc2ccc(C(=O)c3ccccc3)cc2)cc1[N+](=O)[O-]
13,80 to 81 °C,CCOC(=O)C(C)c1csc(=Nc2ccccc2)n1C (stereo unspecified)
14,78 to 79 °C,Cc1ccccc1Oc1nc(Cl)cc(Cl)n1
15,176 to 177 °C,Cc1cc(COc2nn(Cc3ccccc3)cc2C(=O)O)ccc1OCc1nc(-c2ccco2)oc1C
16,75 to 78 °C,CC1CCCCN1c1cc(F)cc(C(=O)Nc2ccc(OCCN3CCOCC3)c3ccccc23)c1 (stereo unspecified)
17,80 to 81 °C,COc1ccccc1OC1CCN(C(=O)Cl)C1 (stereo unspecified)
18,140 to 141 °C,Nc1nccc(-c2cccc(OCC(O)CN3CCN(c4cccc(Cl)c4)CC3)c2)n1 (stereo unspecified)
19,189 to 193 °C,O=c1[nH]c2ccc(Cl)cc2c2nc(-c3cccnc3)nn12
20,229 to 230 °C,O=C(O)c1cn(-c2cccc(I)c2)cn1
21,178 to 184 °C,O=C(O)Cc1c([N+](=O)[O-])cc(O)c(O)c1[N+](=O)[O-]
